Experimental data taken from US20250171457A1, “NITROGEN-CONTAINING HETEROCYCLIC COMPOUND HAVING NRF2 ACTIVATION EFFECT” (CHUGAI SEIYAKU KABUSHIKI KAISHA, priority 2022, published 2025).
pEC50: −log10 of the molar value.

test system: Nrf2 transcriptional activity (pARE-Luc reporter) in HepG2 cells; assay: In vitro Nrf2 transcriptional activity measurement by ARE-dependent reporter assay in HepG2 cell; type: cell-based, human; conditions: Homo sapiens; HepG2 cells transfected with pARE-Luc, 4 hours at 37° C.; luciferase activity of Example 1-54 or Example 17-23 at 3.75 μM defined as 100%
Method in brief: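 HepG2 cells transfected with pGL4.37 (pARE-Luc), replated onto compound and incubated 4 h at 37° C; luciferase read by Bright-Glo luminescence. Response normalized to 100% set by a reference compound at 3.75 μM; EC50 from dose-response curve.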

| Compound | pEC50 |
| --- | --- |
| O=C(O)c1ccc(-c2cccc3c2OCN(C(=O)c2c(Cl)cc(N4CCC(N5CCOCC5)CC4)cc2Cl)C3)cc1N1CCOCC1 [Compound 1-65, 4-[3-[2,6-Dichloro-4-(4-morpholin-4-ylpiperidin-1-yl)benzoyl]-2,4-dihydro-1,3-benzoxazin-8-yl]-2-morpholin-4-ylbenzoic acid] | 8.43 |
| O=C(O)c1ccc(-c2cccc3c2OCN(C(=O)c2c(Cl)cc(N4CCN(C5COC5)CC4)cc2Cl)C3)cc1N1CCOCC1 [Compound 1-66, 4-[3-[2,6-Dichloro-4-[4-(oxetan-3-yl)piperazin-1-yl]benzoyl]-2,4-dihydro-1,3-benzoxazin-8-yl]-2-morpholin-4-ylbenzoic acid] | 8.57 |
| CC(C)N1CCN(c2cc(Cl)c(C(=O)N3COc4c(cccc4-c4ccc(C(=O)O)c(N5CCOCC5)c4)C3)c(Cl)c2)CC1 [Compound 1-67, 4-[3-[2,6-Dichloro-4-(4-propan-2-ylpiperazin-1-yl)benzoyl]-2,4-dihydro-1,3-benzoxazin-8-yl]-2-morpholin-4-ylbenzoic acid] | 8.36 |
| CN1CCN(c2cc(Cl)c(C(=O)N3CSc4c(cccc4-c4cc(N5CCOCC5)c(C(=O)O)cc4F)C3)c(Cl)c2)CC1 [Compound 1-68, 4-[3-[2,6-Dichloro-4-(4-methylpiperazin-1-yl)benzoyl]-2,4-dihydro-1,3-benzothiazin-8-yl]-5-fluoro-2-morpholin-4-ylbenzoic acid] | 8.09 |
| COCCN1CCN(c2cc(Cl)c(C(=O)N3CSc4c(cccc4-c4cc(N5CCOCC5)c(C(=O)O)cc4F)C3)c(Cl)c2)CC1 [Compound 1-69, 4-[3-[2,6-Dichloro-4-[4-(2-methoxyethyl)piperazin-1-yl]benzoyl]-2,4-dihydro-1,3-benzothiazin-8-yl]-5-fluoro-2-morpholin-4-ylbenzoic acid] | 8.27 |
| O=C(O)c1cc(F)c(-c2cccc3c2OCN(C(=O)c2ccc(N4CCN(C5COC5)CC4)cc2Cl)C3)cc1N1CCOCC1 [Compound 1-70, 4-[3-[2-Chloro-4-[4-(oxetan-3-yl)piperazin-1-yl]benzoyl]-2,4-dihydro-1,3-benzoxazin-8-yl]-5-fluoro-2-morpholin-4-ylbenzoic acid] | 8.33 |
| COC1CN(c2cc(Cl)c(C(=O)N3COc4c(cccc4-c4cc(N5C6CCC5COC6)c(C(=O)O)cc4F)C3)cc2C)C1 [Compound 1-71, 4-[3-[2-Chloro-4-(3-methoxyazetidin-1-yl)-5-methylbenzoyl]-2,4-dihydro-1,3-benzoxazin-8-yl]-5-fluoro-2-(3-oxa-8-azabicyclo[3.2.1]octan-8-yl)benzoic acid] | 8.21 |
| COc1cc(C(=O)N2COc3c(cccc3-c3cc(N4CCOCC4)c(C(=O)O)cc3F)C2)c(Cl)cc1N1CCN(C)CC1 [Compound 1-72, 4-[3-[2-Chloro-5-methoxy-4-(4-methylpiperazin-1-yl)benzoyl]-2,4-dihydro-1,3-benzoxazin-8-yl]-5-fluoro-2-morpholin-4-ylbenzoic acid] | 8.24 |
| COc1cc(C(=O)N2COc3c(cccc3-c3cc(N4CCOCC4)c(C(=O)O)cc3F)C2)c(Cl)cc1N1CC2(COC2)C1 [Compound 1-73, 4-[3-[2-Chloro-5-methoxy-4-(2-oxa-6-azaspiro[3.3]heptan-6-yl)benzoyl]-2,4-dihydro-1,3-benzoxazin-8-yl]-5-fluoro-2-morpholin-4-ylbenzoic acid] | 8.29 |
| COc1cc(C(=O)N2COc3c(cccc3-c3cc(N4C5CCC4COC5)c(C(=O)O)cc3F)C2)c(Cl)cc1N1CC(OC)C1 [Compound 1-74, 4-[3-[2-Chloro-5-methoxy-4-(3-methoxyazetidin-1-yl)benzoyl]-2,4-dihydro-1,3-benzoxazin-8-yl]-5-fluoro-2-(3-oxa-8-azabicyclo[3.2.1]octan-8-yl)benzoic acid] | 8.57 |
| O=C(O)c1ccc(-c2cccc3c2C(=O)NN(C(=O)c2c(Cl)cc(N4CCN(C5CC5)CC4)cc2Cl)C3)cc1N1CCOCC1 [Compound 1-75, 4-[2-[2,6-Dichloro-4-(4-cyclopropylpiperazin-1-yl)benzoyl]-4-oxo-1,3-dihydrophthalazin-5-yl]-2-morpholin-4-ylbenzoic acid] | 8.10 |
| CC(C)N1CCN(c2cc(Cl)c(C(=O)N3Cc4cccc(-c5ccc(C(=O)O)c(N6CCOCC6)c5)c4C(=O)N3)c(Cl)c2)CC1 [Compound 1-76, 4-[2-[2,6-Dichloro-4-(4-propan-2-ylpiperazin-1-yl)benzoyl]-4-oxo-1,3-dihydrophthalazin-5-yl]-2-morpholin-4-ylbenzoic acid] | 8.28 |
| O=C(O)c1ccc(-c2cccc3c2C(=O)NN(C(=O)c2c(Cl)cc(N4CCN(CC(F)(F)F)CC4)cc2Cl)C3)cc1N1CCOCC1 [Compound 1-77, 4-[2-[2,6-Dichloro-4-[4-(2,2,2-trifluoroethyl)piperazin-1-yl]benzoyl]-4-oxo-1,3-dihydrophthalazin-5-yl]-2-morpholin-4-ylbenzoic acid] | 8.25 |
| CN1CCN(c2cc(Cl)c(C(=O)N3COc4c(-c5cc(N6CCOCC6)c(C(=O)O)cc5F)ccc(F)c4C3)c(Cl)c2)CC1 [Compound 1-78, 4-[3-[2,6-Dichloro-4-(4-methylpiperazin-1-yl)benzoyl]-5-fluoro-2,4-dihydro-1,3-benzoxazin-8-yl]-5-fluoro-2-morpholin-4-ylbenzoic acid] | 7.82 |
| COCCN1CCN(c2cc(Cl)c(C(=O)N3COc4c(ccc(F)c4-c4ccc(C(=O)O)c(N5CCOCC5)c4)C3)c(Cl)c2)CC1 [Compound 1-79, 4-[3-[2,6-Dichloro-4-[4-(2-methoxyethyl)piperazin-1-yl]benzoyl]-7-fluoro-2,4-dihydro-1,3-benzoxazin-8-yl]-2-morpholin-4-ylbenzoic acid] | 8.44 |
| CN1CCN(c2cc(Cl)c(C(=O)N3COc4c(ccc(F)c4-c4cc(N5CCOCC5)c(C(=O)O)cc4F)C3)c(Cl)c2)CC1 [Compound 1-80, 4-[3-[2,6-Dichloro-4-(4-methylpiperazin-1-yl)benzoyl]-7-fluoro-2,4-dihydro-1,3-benzoxazin-8-yl]-5-fluoro-2-morpholin-4-ylbenzoic acid] | 8.72 |
| COCCN1CCN(c2cc(Cl)c(C(=O)N3COc4c(ccc(F)c4-c4cc(N5CCOCC5)c(C(=O)O)cc4F)C3)c(Cl)c2)CC1 [Compound 1-81, 4-[3-[2,6-Dichloro-4-[4-(2-methoxyethyl)piperazin-1-yl]benzoyl]-7-fluoro-2,4-dihydro-1,3-benzoxazin-8-yl]-5-fluoro-2-morpholin-4-ylbenzoic acid] | 8.29 |
| O=C(O)c1cc(F)c(-c2c(F)ccc3c2OCN(C(=O)c2c(Cl)cc(N4CCN(C5COC5)CC4)cc2Cl)C3)cc1N1CCOCC1 [Compound 1-82, 4-[3-[2,6-Dichloro-4-[4-(oxetan-3-yl)piperazin-1-yl]benzoyl]-7-fluoro-2,4-dihydro-1,3-benzoxazin-8-yl]-5-fluoro-2-morpholin-4-ylbenzoic acid] | 8.46 |
| C[C@@H]1[C@@H](N2CCOCC2)CN1c1cc(Cl)c(C(=O)N2COc3c(cccc3-c3cc(N4C5CCC4COC5)c(C(=O)O)cc3F)C2)c(Cl)c1 [Compound 1-84, 4-[3-[2,6-Dichloro-4-[(2R,3S)-2-methyl-3-morpholin-4-ylazetidin-1-yl]benzoyl]-2,4-dihydro-1,3-benzoxazin-8-yl]-5-fluoro-2-(3-oxa-8-azabicyclo[3.2.1]octan-8-yl)benzoic acid] | 8.62 |
| C[C@@H]1[C@H](N2CCOCC2)CN1c1cc(Cl)c(C(=O)N2COc3c(cccc3-c3cc(N4C5CCC4COC5)c(C(=O)O)cc3F)C2)c(Cl)c1 [Compound 1-85, 4-[3-[2,6-Dichloro-4-[(2R,3R)-2-methyl-3-morpholin-4-ylazetidin-1-yl]benzoyl]-2,4-dihydro-1,3-benzoxazin-8-yl]-5-fluoro-2-(3-oxa-8-azabicyclo[3.2.1]octan-8-yl)benzoic acid] | 9.05 |
| COc1cc(-c2cc(Cl)c(C(=O)N3COc4c(cccc4-c4cc(N5C6CCC5COC6)c(C(=O)O)cc4F)C3)c(Cl)c2)ccn1 [Compound 2-1, 4-[3-[2,6-Dichloro-4-(2-methoxypyridin-4-yl)benzoyl]-2,4-dihydro-1,3-benzoxazin-8-yl]-5-fluoro-2-(3-oxa-8-azabicyclo[3.2.1]octan-8-yl)benzoic acid] | 8.21 |
| CN1CC=C(c2cc(Cl)c(C(=O)N3COc4c(cccc4-c4cc(N5CCOCC5)c(C(=O)O)cc4F)C3)c(Cl)c2)CC1 [Compound 2-3, 4-[3-[2,6-Dichloro-4-(1-methyl-3,6-dihydro-2H-pyridin-4-yl)benzoyl]-2,4-dihydro-1,3-benzoxazin-8-yl]-5-fluoro-2-morpholin-4-ylbenzoic acid] | 8.85 |
| O=C(O)c1ccc(-c2cccc3c2OCN(C(=O)c2c(Cl)cc(-c4ccncc4)cc2Cl)C3)cc1N1CCOCC1 [Compound 2-4, 4-[3-(2,6-Dichloro-4-pyridin-4-ylbenzoyl)-2,4-dihydro-1,3-benzoxazin-8-yl]-2-morpholin-4-ylbenzoic acid] | 8.24 |
| COc1cc(C(=O)N2COc3c(cccc3-c3cc(N4CCOCC4)c(C(=O)O)cc3F)C2)c(Cl)cc1-c1ccncc1 [Compound 2-5, 4-[3-(2-Chloro-5-methoxy-4-pyridin-4-ylbenzoyl)-2,4-dihydro-1,3-benzoxazin-8-yl]-5-fluoro-2-morpholin-4-ylbenzoic acid] | 8.62 |
| COc1cc(C(=O)N2COc3c(cccc3-c3cc(N4CCOCC4)c(C(=O)O)cc3F)C2)c(Cl)cc1-c1cnn(C)c1 [Compound 2-6, 4-[3-[2-Chloro-5-methoxy-4-(1-methylpyrazol-4-yl)benzoyl]-2,4-dihydro-1,3-benzoxazin-8-yl]-5-fluoro-2-morpholin-4-ylbenzoic acid] | 8.22 |
| CC(C)(CO)n1cc(-c2cc(Cl)c(C(=O)N3COc4c(cccc4-c4cc(N5CCOCC5)c(C(=O)O)cc4F)C3)c(Cl)c2)cn1 [Compound 3-1, 4-[3-[2,6-Dichloro-4-[1-(1-hydroxy-2-methylpropan-2-yl)pyrazol-4-yl]benzoyl]-2,4-dihydro-1,3-benzoxazin-8-yl]-5-fluoro-2-morpholin-4-ylbenzoic acid] | 8.89 |
